The assay concerns the target T1, EV-A71 2A protease (r2A protease) (Enterovirus A71, UniProt B9VUU3).
T1 sequence (B9VUU3 863-1012 limits assumed): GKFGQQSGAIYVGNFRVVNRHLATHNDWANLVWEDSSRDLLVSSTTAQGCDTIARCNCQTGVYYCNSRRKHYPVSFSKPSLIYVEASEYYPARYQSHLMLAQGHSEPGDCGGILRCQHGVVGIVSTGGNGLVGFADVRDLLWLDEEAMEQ
Type of assay: biochemical. Particulars: 37 °C, 2 h, 5 µg/mL r2A, 10 µg/mL HRP substrate.

The source of these data is PMC4488731 (Viruses, 2015).

Consider `CCOC(=O)C1=C(Nc2cc(C)cc(C)c2)OCC1=O` [CW-33, Ethyl 2-(3′,5′-dimethylanilino)-4-oxo-4,5-dihydrofuran-3-carboxylate], for which the IC50 was found to be 53.1 µM.
